Reference: US6649639B2, “Antipicornaviral compounds, compositions containing them, and methods for their use” (priority 1997, dated 2003)

Key:
HI-HeLa cells [1] = assay: Cytotoxicity (CC50) in mock-infected HI-HeLa cells, antirhinoviral assay; assay type: cell-based
[2] = target: T1, Recombinant Rhinovirus 3C protease serotype 14 (Human rhinovirus 14, UniProt P03303); assay: Inhibition of Rhinovirus Protease (FRET assay), serotype 14; assay type: biochemical, human rhinovirus (HRV) serotype 14; conditions: for kobs/I: RVP serotype-14, enzyme start progress curves
T1 construct: Recombinant Rhinovirus 3C proteases from serotypes 14, 16, and 2; made in house

[3] = target: Recombinant Rhinovirus 3C protease serotype 2 (Human rhinovirus 2, UniProt P04936); conditions: RVP serotype 2; enzyme start progress curves
Procedure: (§1) Stock solutions (50 mM, in DMSO) of various compounds were prepared; dilutions were in the same solvent. […] Assays contained 2% DMSO, 50 mM tris pH 7.6, 1 mM EDTA, a compound at the indicated concentrations, approximately 1 μM substrate, and 50-100 nM protease. […] The kobs/I values were obtained from reactions initiated by addition of enzyme rather than substrate. RVP activity is measured in the fluorescence resonance energy transfer assay.
(§2) In the above table, all data are for RVP serotype-14 unless otherwise noted in parentheses. All strains of human rhinovirus (HRV) were purchased from American Type Culture Collection (ATCC) except for serotype 14, which was produced from the infectious cDNA clone constructed and supplied to Applicants by Dr. Robert Rueckert at the Institute for Molecular Virology, University of Wisconsin, Madison, Wis. The column designated INHIB represents the percent inhibition at 10 minute preincubation with 50 nM RVP prior to addition of substrate. The data in the column designated kobs/I was measured from progress curves in enzyme start experiments.

[4] = target: Recombinant Rhinovirus 3C protease serotype 16 (Human rhinovirus 16, UniProt Q82122); conditions: RVP serotype 16; enzyme start progress curves
Procedure: as §1, §2

HRV serotype-14 = assay: Antirhinoviral HI-HeLa Cell Culture Assay (XTT cell protection), HRV-14; assay type: cell-based, human rhinovirus; conditions: HRV serotype-14, HI-HeLa cells
Procedure: (§3) In the Cell Protection Assay, the ability of compounds to protect cells against HRV infection was measured by the XTT dye reduction method. This method is described in Weislow, O. S., Kiser, R., Fine, D. L., Bader, J., Shoemaker, R. H., Boyd, M. R., J. Natl. Cancer Inst. 1989, 81, 577-586, the disclosure of which is incorporated herein by reference.
(§4) Infected or mock-infected cells were suspended at 8×10^5 cells per mL and incubated with appropriate concentrations of compounds of formula I. Two days later, XTT/PMS was added to test plates, and the amount of formazan produced was quantified spectrophotometrically at 450/650 nm. […] The therapeutic index (TI) was calculated by dividing the CC50 by the EC50.
(§5) All strains of human rhinovirus (HRV) for use in this assay were purchased from American Type Culture Collection (ATCC) except for HRV serotype-14, which was produced from the infectious cDNA clone constructed and supplied to Applicants by Dr. Robert Rueckert at the Institute for Molecular Virology, University of Wisconsin, Madison, Wis. HRV stocks were propagated, and viral assays were performed in HI-HeLa cells (ATCC). Cells were grown in Minimal Essential Medium, available from Life Technologies, with 10% fetal bovine serum.
(§6) The compounds were tested against control compounds WIN 51711, WIN 52084, and WIN 54954, all obtained from Sterling-Winthrop Pharmaceuticals, and control compound Pirodavir, obtained from Janssen Pharmaceuticals. Antiviral data obtained for the test compounds are shown in Table 2 where all data are for HRV serotype-14 unless otherwise noted in parentheses.

HRV serotype 2 = assay: Antirhinoviral HI-HeLa Cell Culture Assay (XTT cell protection), HRV serotype 2; assay type: cell-based, human rhinovirus; conditions: HRV serotype 2, HI-HeLa cells
Procedure: as §3, §4, §5, §6

HRV serotype 10 = assay: Antirhinoviral HI-HeLa Cell Culture Assay (XTT cell protection), HRV serotype 10; assay type: cell-based, human rhinovirus; conditions: HRV serotype 10, HI-HeLa cells
Procedure: as §3, §4, §5, §6

HI-HeLa cells [5] = assay: Cytotoxicity (CC50) in uninfected HI-HeLa cells, anticoxsackieviral assay; assay type: cell-based; conditions: CVA-21 assay
Procedure: The Coxsackie strain A-21 (CVA-21) was purchased from American Type Culture Collection (ATCC). Virus stocks were propagated, and antiviral assays were performed in HI-HeLa cells (ATCC). Cells were grown in Minimal Essential Medium with 10% fetal bovine serum.
The ability of compounds to protect cells against CVA-21 infection was measured by the XTT dye reduction method. This method is described in Weislow, O. S., Kiser, R., Fine, D. L., Bader, I., Shoemaker, R. H., Boyd, M. R., J. Natl. Cancer Inst. 1989, 81, 577-586, the disclosure of which is incorporated herein by reference. HI-HeLa cells were infected with CVA-21 at a multiplicity of infection (m.o.i.) of 0.05 (CVA-21) or mock-infected with medium only. Infected or uninfected cells were resuspended at 4×10^4 cells per mL and incubated with appropriate concentrations of drug. One day later, XTT/PMS was added to test plates, and the amount of formazan produced was quantified spectrophotometrically at 450/650 nm. […] The therapeutic index (Th) was calculated by dividing the CC50 by the EC50.

HRV serotype 89 = assay: Antirhinoviral HI-HeLa Cell Culture Assay (XTT cell protection), HRV serotype 89; assay type: cell-based, human rhinovirus; conditions: HRV serotype 89, HI-HeLa cells
Procedure: as §3, §4
as §5, with “serum. […]” for “serum.”

HRV serotype 39 = assay: Antirhinoviral HI-HeLa Cell Culture Assay (XTT cell protection), HRV serotype 39; assay type: cell-based, human rhinovirus; conditions: HRV serotype 39, HI-HeLa cells
Procedure: as §3, §4
as §5, with “serum. […]” for “serum.”

HRV serotype 16 = assay: Antirhinoviral HI-HeLa Cell Culture Assay (XTT cell protection), HRV serotype 16; assay type: cell-based, human rhinovirus; conditions: HRV serotype 16, HI-HeLa cells
Procedure: as §3, §4
as §5, with “serum. […]” for “serum.”

HRV serotype 1A = assay: Antirhinoviral HI-HeLa Cell Culture Assay (XTT cell protection), HRV serotype 1A; assay type: cell-based, human rhinovirus; conditions: HI-HeLa cells
Procedure: as §3, §4, §5, §6

T1 sequence (P03303 1538-1719): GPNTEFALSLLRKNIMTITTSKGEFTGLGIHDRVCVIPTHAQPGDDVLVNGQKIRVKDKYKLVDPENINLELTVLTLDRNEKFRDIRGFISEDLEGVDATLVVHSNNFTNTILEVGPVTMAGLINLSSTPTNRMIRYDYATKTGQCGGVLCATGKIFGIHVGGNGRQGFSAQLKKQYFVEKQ
Chain of Recombinant Rhinovirus 3C protease serotype 2 (P04936 1508-1690): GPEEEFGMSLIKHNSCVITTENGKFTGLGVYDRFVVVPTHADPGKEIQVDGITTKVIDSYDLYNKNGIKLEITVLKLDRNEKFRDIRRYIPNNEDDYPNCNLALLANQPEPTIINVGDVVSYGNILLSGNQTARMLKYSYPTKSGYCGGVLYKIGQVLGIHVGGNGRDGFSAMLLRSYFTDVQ
Chain of Recombinant Rhinovirus 3C protease serotype 16 (Q82122 1511-1693): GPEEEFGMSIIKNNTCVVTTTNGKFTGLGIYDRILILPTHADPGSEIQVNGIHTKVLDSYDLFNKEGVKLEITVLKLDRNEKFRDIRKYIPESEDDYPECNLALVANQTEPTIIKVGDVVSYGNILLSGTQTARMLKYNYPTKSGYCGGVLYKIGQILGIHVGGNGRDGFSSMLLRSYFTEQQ

| Compound | CC50 (HI-HeLa cells [1]; line of HRV serotype-14) | EC50 (HRV serotype-14) | EC50 (HRV serotype 10) | CC50 (HI-HeLa cells [1]; line of HRV serotype 10) | CC50 (HI-HeLa cells [1]; line of HRV serotype 1A) | EC50 (HRV serotype 1A) | further results |
| --- | --- | --- | --- | --- | --- | --- | --- |
| CCOC(=O)/C=C/C(CCC(N)=O)NC(=O)C(CC(=O)C(CC(C)C)NC(=O)OCc1ccccc1)Cc1ccccc1 [Compound 1, Ethyl-3-(CBZ-L-LeuΨ[COCH2]-L-Phe-L-Gln)-E-Propenoate] | > 320000 nM | 360 nM | – | – | – | – | kobs/I [2]: 17,380 M^−1sec^−1; kobs/I [3]: 2,242 M^−1sec^−1; kobs/I [4]: 3,880 M^−1sec^−1 |
| CCOC(=O)/C=C/[C@H](CCC(N)=O)NC(=O)[C@@H](CC(=O)[C@H](CC(C)C)NC(=O)SCC)Cc1ccccc1 [Compound 2, Ethyl-3-(EtSCO-L-LeuΨ[COCH2]-L-Phe-L-Gln)-E-Propenoate] | > 320000 nM | 240 nM | – | – | – | – | CC50 (HI-HeLa cells [1]; line of HRV serotype 2): > 320000 nM; EC50 (HRV serotype 2): 1800 nM |
| CC(C)CC(NC(=O)SCc1ccccc1)C(=O)CC(Cc1ccccc1)C(=O)NC(C=CC(=O)N1CCc2ccccc21)CCC(N)=O [Compound 3, (2,3-Dihydroindole)-3-(BnSCO-L-LeuΨ[COCH2]-L-Phe-L-Gln)-E-Propenamide] | – | – | – | – | – | – | Ki [2]: > 7000 nM |
| CCOC(=O)/C=C/[C@H](CCC(N)=O)NC(=O)[C@@H](CC(=O)[C@@H](NC(=O)SCC)C(C)C)Cc1ccccc1 [Compound 4, Ethyl-3-(EtSCO-L-ValΨ[COCH2]-L-Phe-L-Gln)-E-Propenoate] | > 320000 nM | 100 nM | – | – | – | – | CC50 (HI-HeLa cells [1]; line of HRV serotype 2): > 320000 nM; EC50 (HRV serotype 2): 500 nM |
| CCOC(=O)/C=C/C(CCC(N)=O)NC(=O)C(CC(=O)C(NC(=O)SCc1ccccc1)C(C)C)Cc1ccccc1 [Compound 5, Ethyl-3-(BnSCO-L-ValΨ[COCH2]-L-Phe-L-Gln)-E-Propenoate] | > 320000 nM | 190 nM | – | – | – | – | – |
| CCOC(=O)/C=C/C(CCC(N)=O)NC(=O)C(CC(=O)C(CC(C)C)NC(=O)SCc1ccccc1)Cc1ccccc1 [Compound 6, Ethyl-3-(BnSCO-L-LeuΨ[COCH2]-L-Phe-L-Gln)-E-Propenoate] | > 100000 nM | 680 nM | – | – | – | – | – |
| CCOC(=O)/C=C/C(CCC(N)=O)NC(=O)C(CC(=O)C(NC(=O)SC1CCCC1)C(C)C)Cc1ccccc1 [Compound 7, Ethyl-3-(CyPentylSCO-L-ValΨ[COCH2]-L-Phe-L-Gln)-E-Propenoate] | > 10000 nM | 22 nM | 35 nM | > 10000 nM | – | – | CC50 (HI-HeLa cells [1]; line of HRV serotype 2): > 10000 nM; CC50 (HI-HeLa cells [1]; line of HRV serotype 39): > 10000 nM; CC50 (HI-HeLa cells [1]; line of HRV serotype 89): > 10000 nM; EC50 (HRV serotype 2): 100 nM; CC50 (HI-HeLa cells [5]): > 10000 nM; EC50 (HRV serotype 89): 4 nM; EC50 (HRV serotype 39): 130 nM |
| CCOC(=O)/C=C/[C@H](CCC(N)=O)NC(=O)[C@@H](CC(=O)[C@H](CC(C)C)NC(=O)SC1CCCC1)Cc1ccccc1 [Compound 8, Ethyl-3-(CyPentylSCO-L-LeuΨ[COCH2]-L-Phe-L-Gln)-E-Propenoate] | > 100000 nM | 190 nM | – | – | – | – | – |
| CCOC(=O)/C=C/[C@H](CCC(N)=O)NC(=O)[C@@H](CC(=O)[C@@H](NC(=O)SCC)C(C)C)Cc1ccc(C)cc1 [Compound 10, Ethyl-3-(EtSCO-L-ValΨ[COCH2]-L-(p-CH3)Phe-L-Gln)-E-Propenoate] | > 1000 nM | 11 nM | – | – | – | – | CC50 (HI-HeLa cells [1]; line of HRV serotype 2): > 1000 nM; EC50 (HRV serotype 2): 180 nM |
| CCOC(=O)/C=C/C(CCC(N)=O)NC(=O)C(CC(=O)C(NC(=O)SC1CCCC1)C(C)C)Cc1ccc(C)cc1 [Compound 11, Ethyl-3-(CyPentylSCO-L-ValΨ[COCH2]-L-(p-CH3)Phe-L-Gln)-E-Propenoate] | > 3000 nM | 6 nM | 60 nM | > 3000 nM | > 3000 nM | 160 nM | CC50 (HI-HeLa cells [1]; line of HRV serotype 2): > 3000 nM; CC50 (HI-HeLa cells [1]; line of HRV serotype 16): > 3000 nM; CC50 (HI-HeLa cells [1]; line of HRV serotype 39): > 3000 nM; EC50 (HRV serotype 2): 120 nM; EC50 (HRV serotype 16): 25 nM; EC50 (HRV serotype 39): 130 nM |
| CCOC(=O)C=CC(CCC(N)=O)NC(=O)C(CC(=O)C(NC(=O)SC(C)(C)C)C(C)C)Cc1ccc(F)cc1 (stereo not drawn) [Compound 26] | > 10000 nM | 50 nM | 550 nM | > 10000 nM | > 10000 nM | – | – |
| CCOC(=O)C=CC(CCC(N)=O)NC(=O)C(CC(=O)C(NC(=O)C1SCCS1)C(C)C)Cc1ccc(F)cc1 (stereo not drawn) [Compound 27] | > 1000 nM | – | 3300 nM | > 1000 nM | > 1000 nM | – | – |
| CC(C)C(NC(=O)SC1CCCC1)C(=O)CC(Cc1ccc(F)cc1)C(=O)NC(C=CC(=O)OCc1cccnc1)CCC(N)=O (stereo not drawn) [Compound 28] | > 10000 nM | – | 1000 nM | > 10000 nM | > 10000 nM | 600 nM | – |
| CC(C)C(NC(=O)C1SCCS1)C(=O)CC(Cc1ccc(F)cc1)C(=O)NC(C=CC(=O)OCc1cccnc1)CCC(N)=O (stereo not drawn) [Compound 30] | > 100000 nM | 1500 nM | – | – | – | – | kobs/I [2]: 292,000 M^−1sec^−1 |
| CCOC(=O)C=CC(CCC(N)=O)NC(=O)C(CC(=O)C(NC(=O)C1SCCCS1)C(C)C)Cc1ccc(F)cc1 (stereo not drawn) [Compound 31] | > 3000 nM | – | 4700 nM | > 3000 nM | > 3000 nM | 6300 nM | – |
| CC(C)C(NC(=O)SC(C)(C)C)C(=O)CC(Cc1ccc(F)cc1)C(=O)NC(C=CC(=O)OCc1cccnc1)CCC(N)=O (stereo not drawn) [Compound 32] | > 32000 nM | 400 nM | 1900 nM | > 32000 nM | > 32000 nM | 2200 nM | kobs/I [2]: 58,000 M^−1sec^−1 |
| CC(C)C(NC(=O)SC1CCCC1)C(=O)CC(Cc1ccc(F)cc1)C(=O)NC(C=CC(=O)OCCO)CCC(N)=O (stereo not drawn) [Compound 33] | > 32000 nM | 510 nM | 1600 nM | > 32000 nM | > 32000 nM | 1700 nM | kobs/I [2]: 281,000 M^−1sec^−1 |
| CCOC(=O)C=CC(CCC(N)=O)NC(=O)C(CC(=O)C(NC(=O)c1cc(C)on1)C(C)C)Cc1ccc(F)cc1 (stereo not drawn) [Compound 34] | > 3000 nM | – | 400 nM | > 3000 nM | > 3000 nM | 300 nM | – |
| Cc1cc(CCCCCOc2c(Cl)cc(C3=NCCO3)cc2Cl)on1 [WIN 54954, reference compound] | – | – | – | – | – | – | CC50 (HI-HeLa cells [5]): > 100000 nM |
| Ethyl-3-(CyPentylSCO-L-CyhexΨ[COCH2]-L-(p-F)Phe-L-Gln)-E-Propenoate [Compound 24] | – | 32 nM | – | – | – | – | – |
